The text below walks through data of paper PMC5747257 (Bioorganic & medicinal chemistry letters, 2017).

For one experiment, the system named is HDAC isoforms. As to conditions: cited from earlier work; for isoform selectivity: prior work.
The test system of experiment [1] is HeLa cell lysates as the source of all HDAC proteins. The experiment can be described thus: Global HDAC inhibition with HeLa cell lysates. It is filed as biochemical. Conditions: mean and standard error of at least three independent trials.
The next experiment deals with T1, HDAC6 (Homo sapiens, UniProt Q9UBN7).
T1 sequence (Q9UBN7 1-1215): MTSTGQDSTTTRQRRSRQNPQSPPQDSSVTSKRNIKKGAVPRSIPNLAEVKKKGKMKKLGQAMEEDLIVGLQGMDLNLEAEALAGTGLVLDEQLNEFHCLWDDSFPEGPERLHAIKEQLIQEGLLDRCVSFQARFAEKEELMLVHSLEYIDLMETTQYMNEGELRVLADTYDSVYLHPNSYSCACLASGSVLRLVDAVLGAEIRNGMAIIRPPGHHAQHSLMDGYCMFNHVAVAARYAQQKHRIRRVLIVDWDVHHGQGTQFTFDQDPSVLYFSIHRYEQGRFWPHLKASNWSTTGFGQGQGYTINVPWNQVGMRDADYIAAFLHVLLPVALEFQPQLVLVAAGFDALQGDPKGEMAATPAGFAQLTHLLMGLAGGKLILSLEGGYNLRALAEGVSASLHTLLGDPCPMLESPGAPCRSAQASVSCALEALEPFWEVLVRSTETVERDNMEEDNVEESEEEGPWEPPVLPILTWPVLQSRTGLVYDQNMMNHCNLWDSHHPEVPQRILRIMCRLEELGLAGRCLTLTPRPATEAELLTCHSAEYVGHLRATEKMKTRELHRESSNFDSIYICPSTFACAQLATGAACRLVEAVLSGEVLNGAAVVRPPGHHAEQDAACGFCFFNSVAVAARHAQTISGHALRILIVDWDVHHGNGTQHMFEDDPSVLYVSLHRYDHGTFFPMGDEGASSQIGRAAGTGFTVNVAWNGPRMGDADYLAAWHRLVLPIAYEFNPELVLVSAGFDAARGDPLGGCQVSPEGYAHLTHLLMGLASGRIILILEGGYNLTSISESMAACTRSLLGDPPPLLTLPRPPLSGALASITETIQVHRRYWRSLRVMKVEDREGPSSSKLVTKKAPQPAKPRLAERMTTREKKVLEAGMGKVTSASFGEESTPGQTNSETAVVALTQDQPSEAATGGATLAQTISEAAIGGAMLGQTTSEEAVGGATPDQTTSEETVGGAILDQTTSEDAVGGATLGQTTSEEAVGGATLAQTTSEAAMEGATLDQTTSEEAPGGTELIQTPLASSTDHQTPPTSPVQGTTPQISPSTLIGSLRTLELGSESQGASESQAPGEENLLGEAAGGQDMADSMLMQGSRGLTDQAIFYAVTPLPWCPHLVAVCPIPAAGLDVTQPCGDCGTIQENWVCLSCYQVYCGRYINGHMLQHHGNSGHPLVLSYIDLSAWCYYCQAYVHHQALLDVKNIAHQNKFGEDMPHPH
The experiment can be described thus: ELISA-based HDAC activity assay, HDAC6. Type of experiment: biochemical. Conditions: from IC50 values (Tables 2 and S6). For orientation: In an ELISA, binding on a coated surface is turned into a signal by an enzyme label.

In experiment [2] the test system is HDAC6 (substrate acetyl-α-tubulin, AcTub). The experiment can be described thus: In cellulo selectivity, western blot of acetyl-α-tubulin in U937 cells. It is filed as cell-based. Conditions: SAHA 5 µM, 1e 10–40 µM, compared to DMSO control. In general terms: In western blotting, separated proteins are transferred to a membrane and probed.
Experiment [3] deals with Class I HDAC (HDAC1, 2, and 3) (substrate acetyl-histone 3, AcH3). As to the kind of experiment: In cellulo selectivity, western blot of acetyl-histone H3 in U937 cells. Type of experiment: cell-based. Conditions: SAHA 5 µM, 1e 10–40 µM, compared to DMSO control.

Take `CCCCCCC(CCCCCC(=O)Nc1ccccc1)C(=O)NO` (stereo not shown) [C2-hexyl SAHA]: the “selectivity for HDAC6 and 8 over HDAC1, 2, and 3” value in the experiment on HDAC isoforms (previously reported) is reported as 49- to 300 fold. Further, in the experiment with HDAC isoforms, the isoform selectivity result was “dual HDAC6/8 selectivity”. Moreover, the half-inhibitory concentration (IC50) (as a rule, the concentration needed to halve the response being measured) in the experiment with HDAC isoforms (read-out: IC50 values against HDAC6 and 8, previously reported) is 0.6 to 2 µM. Take `CCC(CCCCC(=O)Nc1ccccc1)CC(=O)NO` (stereo not shown) [C3-ethyl SAHA]: the isoform selectivity entry in the experiment with HDAC isoforms is listed as “HDAC6 selectivity”. For `CCCCC(CCCCC(=O)NO)CC(=O)Nc1ccccc1` (stereo not shown) [C6-butyl SAHA], in the experiment with HDAC isoforms, the isoform selectivity result was “inhibited HDAC1 and 6 over HDAC3”. In experiment [1], `CC(CCCC(=O)NO)CCC(=O)Nc1ccccc1` (stereo not shown) [Compound 1a, C5-methyl SAHA] yielded a half-inhibitory concentration (IC50) of 0.1 ± 0.01 µM. Turning to `CCCCC(CCCC(=O)NO)CCC(=O)Nc1ccccc1` (stereo not shown) [Compound 1b, C5-n-butyl SAHA], the “selectivity for HDAC6 and HDAC8 over HDAC1, 2, and 3” value at HDAC6 is on record as 3- to 5 fold. Still for that read-out and setting: to `CCCCCCC(CCCC(=O)NO)CCC(=O)Nc1ccccc1` (stereo not shown) [Compound 1c, C5-n-hexyl SAHA] belongs 5- to 7 fold. Take `O=C(CCCC(CCC(=O)Nc1ccccc1)Cc1ccccc1)NO` (stereo not shown) [Compound 1e, C5-benzyl SAHA]: in experiment [2], the “levels of acetyl-α-tubulin (AcTub)” value is given as “dose dependent selective increase”. Besides, the “levels of acetyl-histone H3 (AcH3)” value in experiment [3] is given as “increased levels”.
